Results taken from PubChem BioAssay AID330 (DTP/NCI, 2004).
Values joined by “and” are separate entries in the source; they are usually repeats but may differ in a detail not shown here. Equal values may be shown once. Inconclusive results and toxic doses are left out.

System: P388 leukemia ip, CD2F1 mice, survival T/C
Assay: NCI In Vivo Anticancer Drug Screen. Data for tumor model P388 Leukemia (intraperitoneal) in CD2F1 (CDF1) mice
Settings: endpoint: median survival time, higher = longer survival
Method in brief: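 Mice carrying the transplanted tumor received test compound or vehicle. Survival was recorded in each group, and the value is the treated-group measurement divided by that of the vehicle-treated control group.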

[1] = dose: 50.0 mg/kg/injection, schedule: Q01DX005 (ip), vehicle: saline with Tween-80
[2] = dose: 100.0 mg/kg/injection, schedule: Q01DX005 (ip), vehicle: saline with Tween-80
[3] = dose: 12.5 mg/kg/injection, schedule: Q01DX009 (ip), vehicle: saline with Tween-80
[4] = dose: 25.0 mg/kg/injection, schedule: Q01DX009 (ip), vehicle: saline with Tween-80
[5] = dose: 50.0 mg/kg/injection, schedule: Q01DX009 (ip), vehicle: saline with Tween-80
[6] = dose: 50.0 mg/kg/injection, schedule: Q01DX005 (ip), vehicle: Klucel (hydroxypropylcellulose) (HPC)
[7] = dose: 100.0 mg/kg/injection, schedule: Q01DX005 (ip), vehicle: Klucel (hydroxypropylcellulose) (HPC)
[8] = dose: 200.0 mg/kg/injection, schedule: Q01DX005 (ip), vehicle: Klucel (hydroxypropylcellulose) (HPC)
[9] = dose: 60.0 mg/kg/injection, schedule: Q01DX005 (ip), vehicle: saline with Tween-80
[10] = dose: 120.0 mg/kg/injection, schedule: Q01DX005 (ip), vehicle: saline with Tween-80
[11] = dose: 240.0 mg/kg/injection, schedule: Q01DX005 (ip), vehicle: saline with Tween-80
[12] = dose: 50.0 mg/kg/injection, schedule: Q01DX009 (ip), vehicle: Klucel (hydroxypropylcellulose) (HPC)
[13] = dose: 100.0 mg/kg/injection, schedule: Q01DX009 (ip), vehicle: Klucel (hydroxypropylcellulose) (HPC)
[14] = dose: 200.0 mg/kg/injection, schedule: Q01DX009 (ip), vehicle: Klucel (hydroxypropylcellulose) (HPC)

In the case of `CC(=O)OC12CC[N+]3(C)CCCCC3C1=Nc1ccccc12` (stereo not given), the T/C (dose: 12.5 mg/kg/injection, schedule: Q01DX009 (ip), vehicle: saline) is reported as 110 % of control and the T/C (dose: 25.0 mg/kg/injection, schedule: Q01DX009 (ip), vehicle: saline) is reported as 99 % of control.

With `CCCCN(CCCC)CC(O)c1cccc2cc(Cl)ccc12` (stereo not given) the T/C [1] was 104 % of control and the T/C [2] was 109 % of control.

For `NNC(=O)C(N)=O`, the T/C [3] was 100 % of control, the T/C [4] was 104 % of control and the T/C [5] was 100 % of control. For the same molecule, the T/C (dose: 100.0 mg/kg/injection, schedule: Q01DX009 (ip), vehicle: saline with Tween-80) was 97 % of control.

In the case of `Nc1nc(=O)n(C2CCCCO2)cc1Br` (stereo not given), the T/C [6] is reported as 104 % of control, the T/C [7] is reported as 109 % of control and the T/C [8] is reported as 97 % of control.

`O=C1NC(c2ccccc2)(c2ccccc2)C(=O)N1CNc1ccccn1` was tested, and the T/C [9] was 91 % of control, the T/C [10] was 89 % of control and the T/C [11] was 88 % of control.

For `C/C(=C\Cc1cc(O)cc(C)c1O)CC(=O)CC1(C)CCCC1(C)C(=O)/C=C/C(C)(C)O` (stereo not given), the T/C (dose: 1.5 mg/kg/injection, schedule: Q01DX009 (ip), vehicle: saline with Tween-80) was 110 % of control, the T/C (dose: 3.0 mg/kg/injection, schedule: Q01DX009 (ip), vehicle: saline with Tween-80) was 101 % of control and the T/C (dose: 6.0 mg/kg/injection, schedule: Q01DX009 (ip), vehicle: saline with Tween-80) was 104 % of control. For the same molecule, the T/C (dose: 12.0 mg/kg/injection, schedule: Q01DX009 (ip), vehicle: saline with Tween-80) was 103 % of control.

`Nc1cc(F)ccc1CC(=O)O` was tested, and the T/C (dose: 60.0 mg/kg/injection, schedule: Q01DX005 (ip), vehicle: saline) was 103 % of control, the T/C (dose: 120.0 mg/kg/injection, schedule: Q01DX005 (ip), vehicle: saline) was 99 % of control and the T/C (dose: 240.0 mg/kg/injection, schedule: Q01DX005 (ip), vehicle: saline) was 99 % of control.

`Cc1ccc(C(=O)CS(=O)(=O)c2ccc(C)cc2)cc1` was tested, and the T/C [12] was 101 % of control, the T/C [13] was 98 % of control and the T/C [14] was 96 % of control.

`CCC1(O)C(=O)OCc2c1cc(-c1ccc(Cl)cc1)nc2OC` (stereo not given) was tested, and the T/C (dose: 12.5 mg/kg/injection, schedule: Q01DX009 (ip), vehicle: distilled water + Tween-80) was 101 % of control, the T/C (dose: 25.0 mg/kg/injection, schedule: Q01DX009 (ip), vehicle: distilled water + Tween-80) was 100 % of control and the T/C (dose: 50.0 mg/kg/injection, schedule: Q01DX009 (ip), vehicle: distilled water + Tween-80) was 99 % of control. The T/C (dose: 100.0 mg/kg/injection, schedule: Q01DX009 (ip), vehicle: distilled water + Tween-80) was 91 % of control and the T/C (dose: 200.0 mg/kg/injection, schedule: Q01DX009 (ip), vehicle: distilled water + Tween-80) was 98 % of control.

`CS/C(N)=N/NC(=O)CCC(=O)Nc1cc(Cl)c(Cl)cc1Cl` was tested, and the T/C (dose: 100.0 mg/kg/injection, schedule: Q04DX002 (ip), vehicle: saline with Tween-80) was 102 % of control, the T/C (dose: 200.0 mg/kg/injection, schedule: Q04DX002 (ip), vehicle: saline with Tween-80) was 100 % of control and the T/C (dose: 400.0 mg/kg/injection, schedule: Q04DX002 (ip), vehicle: saline with Tween-80) was 96 % of control.

With `CCN(CC)CCNC(=O)Cc1cccc2c(=O)cc(-c3ccccc3)oc12` the T/C (dose: 50.0 mg/kg/injection, schedule: Q01DX009 (ip), vehicle: saline) was 108 % of control, the T/C (dose: 100.0 mg/kg/injection, schedule: Q01DX009 (ip), vehicle: saline) was 99 % of control and the T/C (dose: 200.0 mg/kg/injection, schedule: Q01DX009 (ip), vehicle: saline) was 97 % of control.

For `CCCCCCCCOP(=O)(N1CC1)N1CC1`, the T/C (dose: 22.0 mg/kg/injection, schedule: Q04DX003 (ip), vehicle: saline) was 154 % of control, the T/C (dose: 33.0 mg/kg/injection, schedule: Q04DX003 (ip), vehicle: saline) was 222 % of control and the T/C (dose: 50.0 mg/kg/injection, schedule: Q04DX003 (ip), vehicle: saline) was 159 % of control. The T/C (dose: 75.0 mg/kg/injection, schedule: Q04DX003 (ip), vehicle: saline) was 118 % of control.

With `CC1([N+](=O)[O-])C(=O)C2(N3CCCCC3)CCCC2C1c1ccccc1` (stereo not given) the T/C (dose: 60.0 mg/kg/injection, schedule: Q01DX005 (ip), vehicle: Klucel (hydroxypropylcellulose) (HPC)) was 99 % of control, the T/C (dose: 120.0 mg/kg/injection, schedule: Q01DX005 (ip), vehicle: Klucel (hydroxypropylcellulose) (HPC)) was 96 % of control and the T/C (dose: 240.0 mg/kg/injection, schedule: Q01DX005 (ip), vehicle: Klucel (hydroxypropylcellulose) (HPC)) was 97 % of control.

With `CCCn1c(Cl)c(/C=N\Nc2ccc([N+](=O)[O-])cc2[N+](=O)[O-])c2ccccc21` the T/C (dose: 100.0 mg/kg/injection, schedule: Q04DX003 (ip), vehicle: saline with Tween-80) was 92 % of control, the T/C (dose: 200.0 mg/kg/injection, schedule: Q04DX003 (ip), vehicle: saline with Tween-80) was 97 % of control and the T/C (dose: 400.0 mg/kg/injection, schedule: Q04DX003 (ip), vehicle: saline with Tween-80) was 92 % of control.

With `COc1cc(C2NCCc3cc4c(cc32)OCO4)cc(OC)c1OC` (stereo not given) the T/C [1] was 100 % of control and the T/C [2] was 100 % of control.

With `CCSc1nc2ccc(NC(=O)CCC(=O)O)cc2s1` the T/C [12] was 103 % of control, the T/C [13] was 102 % of control and the T/C [14] was 101 % of control.

In the case of `CC1S(=O)(=O)O[Si](C)(C)CC[Si](C)(C)OS1(=O)=O`, the T/C [6] is reported as 105 % of control, the T/C [7] is reported as 100 % of control and the T/C [8] is reported as 102 % of control.

With `O=[N+]([O-])c1cccc(S(=O)(=O)N/N=C/c2cc([N+](=O)[O-])cc(I)c2O)c1` the T/C [9] was 103 % of control, the T/C [10] was 95 % of control and the T/C [11] was 111 % of control.

For `Cc1nnc(Cc2ccccc2)c2n[nH]c(C)c12`, the T/C [12] was 98 % of control, the T/C [13] was 103 % of control and the T/C [14] was 95 % of control.

For `C=C(C)C1CC/C(C)=C/CCC2(C)OC2CC/C(CO)=C\C1O` (stereo not given), the T/C (dose: 8.0 mg/kg/injection, schedule: Q01DX009 (ip), vehicle: saline with Tween-80) was 113 % of control, the T/C (dose: 16.0 mg/kg/injection, schedule: Q01DX009 (ip), vehicle: saline with Tween-80) was 114 % of control and the T/C (dose: 32.0 mg/kg/injection, schedule: Q01DX009 (ip), vehicle: saline with Tween-80) was 110 % of control. For the same molecule, the T/C (dose: 64.0 mg/kg/injection, schedule: Q01DX009 (ip), vehicle: saline with Tween-80) was 115 % of control.

With `Clc1cccc(N(C2=NCCS2)C2=NCCS2)c1` the T/C (dose: 25.0 mg/kg/injection, schedule: Q01DX009 (ip), vehicle: Klucel (hydroxypropylcellulose) (HPC)) was 107 % of control, the T/C [12] was 104 % of control and the T/C [13] was 107 % of control. The T/C [14] was 104 % of control.

With `N#Cc1ncnc2nc[nH]c12` the T/C [6] was 101 % of control and the T/C [7] was 107 % of control.

With `O=C(C=C(C(F)(F)F)C(F)(F)F)c1ccc(Cl)c2ccccc12` the T/C (dose: 12.5 mg/kg/injection, schedule: Q04DX003 (ip), vehicle: saline with Tween-80) was 113 % of control and the T/C (dose: 25.0 mg/kg/injection, schedule: Q04DX003 (ip), vehicle: saline with Tween-80) was 118 % of control.

For `CN(C)c1ccc(CN(Cc2ccccc2)CC(O)c2ccccc2)cc1` (stereo not given), the T/C (dose: 6.25 mg/kg/injection, schedule: Q01DX009 (ip), vehicle: saline with Tween-80) was 97 % of control, the T/C [3] was 100 % of control and the T/C [4] was 100 % of control. For the same molecule, the T/C [5] was 102 % of control.

In the case of `Cc1ccnc(NC(=O)Nc2cc(Cl)ccc2Cl)c1`, the T/C [12] is reported as 100 % of control and the T/C [13] is reported as 87 % of control.

`CC(C)NC(=O)OCc1c(COC(=O)NC(C)C)c(-c2ccc(Cl)c(Cl)c2)n2c1CC(OC(=O)CN(C)C)C2` (stereo not given) was tested, and the T/C (dose: 2.5 mg/kg/injection, schedule: Q01DX009 (ip), vehicle: water) was 101 % of control, the T/C (dose: 5.0 mg/kg/injection, schedule: Q01DX009 (ip), vehicle: distilled water + Tween-80) was 111 % of control and the T/C (dose: 5.0 mg/kg/injection, schedule: Q01DX009 (ip), vehicle: water) was 117 % of control. The T/C (dose: 10.0 mg/kg/injection, schedule: Q01DX009 (ip), vehicle: distilled water + Tween-80) was 122 % of control and the T/C (dose: 80.0 mg/kg/injection, schedule: Q01DX009 (ip), vehicle: water) was 110 % of control.

For `O=S(=O)(C(Br)S(=O)(=O)C(F)(F)C(F)(F)C(F)(F)C(F)(F)F)C(F)(F)C(F)(F)C(F)(F)C(F)(F)F`, the T/C (dose: 25.0 mg/kg/injection, schedule: Q01DX001 (ip), vehicle: saline) was 95 % of control, the T/C (dose: 50.0 mg/kg/injection, schedule: Q01DX001 (ip), vehicle: saline) was 95 % of control and the T/C (dose: 100.0 mg/kg/injection, schedule: Q01DX001 (ip), vehicle: saline) was 100 % of control and 101 % of control.
